The values that follow come from ChEMBL document CHEMBL4765487, “From a Designer Drug to the Discovery of Selective Cannabinoid Type 2 Receptor Agonists with Favorable Pharmacokinetic Profiles for the Treatment of Systemic Sclerosis” (J Med Chem, 2021).

Data set [1] has as its target T1, Cannabinoid receptor 2 (Homo sapiens, UniProt P34972). Briefly: Agonist activity at human CB2 receptor expressing CHO cells co-expressing Galpha16 by calcium mobilization assay. It counts as functional, cell-based. (A change in cytosolic calcium serves as a functional read-out for many receptors and channels.)
Data set [2] addresses T2, Cannabinoid receptor 1 (Homo sapiens, UniProt P21554). Briefly: Agonist activity at human CB1 receptor expressing CHO cells co-expressing Galpha16 by calcium mobilization assay. It is filed as functional, cell-based.
Data set [3] has as its target T1, Cannabinoid receptor 2. Briefly: Agonist activity at human CB2 receptor expressing CHO cells co-expressing Galpha16 by calcium mobilization assay relative to CP55940. It counts as functional, cell-based.
Data set [4] addresses T2, Cannabinoid receptor 1. Briefly: Agonist activity at human CB1 receptor expressing CHO cells co-expressing Galpha16 by calcium mobilization assay relative to CP55940. It counts as functional, cell-based.
The nature of data set [5]: in vitro. The following applies: human, liver microsomes. (In general: Microsomes from liver hold many membrane-bound enzymes, among them those of drug oxidation.)
Description: Stability in human liver microsomes assessed as parent compound remaining at 1 uM incubated for 60 mins in presence of NADPH by LC-MS/MS analysis
A short description of data set [6]: in vitro. The settings on record: human, liver microsomes. The source holds these as a separate data set.
Data set [7] in a line: in vitro. The settings on record: human, liver microsomes. This is another data set of the same source.
Description: Half life in human liver microsomes at 1 uM in presence of NADPH by LC-MS/MS analysis
Data set [8] in a line: in vitro. The settings on record: human, liver.
Data set [9] concerns the target T1, Cannabinoid receptor 2. Briefly: Antagonist activity at human CB2 receptor expressing CHO cells co-expressing Galpha16 assessed as inhibition of CP55940-induced calcium mobilization pre-incubated for 15 mins before CP55940 addition. It is filed as functional, cell-based. The following applies: cho.

T1 sequence (P34972 whole entry): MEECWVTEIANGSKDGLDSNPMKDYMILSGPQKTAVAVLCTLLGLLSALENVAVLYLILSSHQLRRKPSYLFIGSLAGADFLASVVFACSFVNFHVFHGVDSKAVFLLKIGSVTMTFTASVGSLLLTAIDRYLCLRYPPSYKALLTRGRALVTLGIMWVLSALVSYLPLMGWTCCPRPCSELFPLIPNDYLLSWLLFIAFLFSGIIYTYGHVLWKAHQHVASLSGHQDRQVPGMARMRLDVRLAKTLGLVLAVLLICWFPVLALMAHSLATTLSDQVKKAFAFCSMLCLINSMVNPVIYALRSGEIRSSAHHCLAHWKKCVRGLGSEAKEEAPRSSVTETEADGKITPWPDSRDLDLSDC
T2 sequence (P21554 whole entry): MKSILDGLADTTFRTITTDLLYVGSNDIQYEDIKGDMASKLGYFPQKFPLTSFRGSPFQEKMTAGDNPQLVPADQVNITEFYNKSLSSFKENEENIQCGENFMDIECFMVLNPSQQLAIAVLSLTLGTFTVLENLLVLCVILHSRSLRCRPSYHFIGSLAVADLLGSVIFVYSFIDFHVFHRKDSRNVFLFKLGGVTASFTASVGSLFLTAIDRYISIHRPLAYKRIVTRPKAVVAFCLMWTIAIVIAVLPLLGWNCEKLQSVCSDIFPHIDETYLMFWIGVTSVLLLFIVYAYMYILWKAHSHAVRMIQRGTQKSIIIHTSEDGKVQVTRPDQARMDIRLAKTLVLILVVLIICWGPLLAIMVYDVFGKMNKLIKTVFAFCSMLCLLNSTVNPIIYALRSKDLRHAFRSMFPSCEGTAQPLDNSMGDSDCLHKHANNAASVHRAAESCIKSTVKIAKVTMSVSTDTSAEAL

Regarding `COc1ccc(-n2nc(C(=O)NC(C)(C)CO)cc2C(C)(C)C)cc1`, the EC50 in data set [1] and in data set [2] was 100000 nM in each case.
In the case of `CCCCCCn1nc(C(=O)NC(C)(C)CO)cc1C(C)(C)C`, the Emax in [3] (filed as agonist) and in [4] (filed as agonist) was 100% throughout. Further, the EC50 – broadly, the concentration giving half of the maximal effect – was 13.4 nM in data set [1] and 47 nM in [2].
For the compound `C[C@]12CC[C@H]3[C@@H](CCC4=CC(=O)CC[C@@]43C)[C@@H]1CC[C@@H]2O` [TESTOSTERONE], the fraction remaining (usually the share of the starting amount still present when the sample was taken) at 1 h, 1 µM in data set [5] was 10.7%. The intrinsic metabolic clearance (microsomal CLint) (usually the rate of metabolic loss divided by the concentration) at 1 µM in data set [6] came to 73.6 µL/min/mg. The half-life (usually how long it takes for the measured level to halve) at 1 µM in data set [7] is 18.8 min. Moreover, in data set [8], the CLint scaled (in general, the rate of metabolic loss divided by the concentration) at 1 µM was found to be 66.3 mL/min/kg.
In the case of `CCCCCn1nc(C(=O)NC23CC4CC(CC(O)(C4)C2)C3)cc1C(C)(C)C`, the EC50 came out at 100000 nM in data set [1] and 4 nM in [2]. The maximal effect (Emax) (commonly the greatest response seen or fitted, relative to the assay's reference) in data set [4] (filed as agonist) turned out to be 100%.
For `CCCCCn1nc(C(=O)N[C@H](C(=O)OC)C(C)C)cc1C(C)(C)C`, the Emax was 100% in data set [3] (filed as agonist) and 70% in [4] (filed as agonist). Moreover, the EC50 in data set [1] stood at 7.2 nM; in data set [2], 26.6 nM.
As to `CCCCCn1nc(C(=O)NC(C)(C)CO)cc1CC(C)(C)C`, the values for the maximal effect (Emax) in data set [3] (filed as agonist) and in data set [4] (filed as agonist) were 50% and 90%, respectively. For the same compound, the IC50 entry in [9] is “Not Active”. Further, the 50% effective concentration (EC50) in data set [1] came to 12 nM; in [2] it was 27 nM.
With `CCCCCn1nc(C(=O)NC(C)(C)C)cc1C(C)(C)C`, the maximal response (Emax) in data set [3] (filed as agonist) and in [4] (filed as agonist) was 100% each time. Also, the EC50 in data set [1] amounted to 12 nM; in data set [2] it was 7.2 nM.
On to `CCCCCn1nc(C(=O)Nc2ccncc2)cc1C(C)(C)C`, for which the maximal effect (Emax) was found to be 60% in [3] (filed as agonist) and 30% in [4]. Further, the half-maximal effective concentration (EC50) in [1] amounted to 118 nM; in [2], 220 nM.
In the case of `CCCn1nc(C(=O)NC(C)(C)CO)cc1C(C)(C)C`, the Emax in [3] (filed as agonist) is 100%. Besides, the EC50 in data set [1] was found to be 210 nM; in data set [2], 100000 nM.
For `CCCCCn1nc(C(=O)NC(C)(C)CO)cc1C1CC1`, the IC50 result in data set [9] is on record as “Not Active”. Also, the EC50 in data set [1] and in data set [2] was 100000 nM in each case.
Turning to `CC(C)(CO)NC(=O)c1cc(C(C)(C)C)n(-c2ccccc2)n1`, the EC50 in data set [1] and in data set [2] was 100000 nM each time.
In the case of `CCCCCn1nc(C(C)(C)C)cc1C(=O)NC12CC3CC(CC(O)(C3)C1)C2`, the half-maximal effective concentration (EC50) in data set [1] and in data set [2] was 100000 nM throughout.
Turning to `CCCCCn1nc(C(=O)NC23CC4CC(CC(C4)C2)C3)cc1C(C)(C)C`, the maximum response (Emax) was 58% in [3] (filed as partial agonist) and 69% in data set [4] (filed as partial agonist). For the same compound, the EC50 turned out to be 194 nM in [1] and 271 nM in data set [2].
Turning to `CC(C)(CO)NC(=O)c1cc(C(C)(C)C)n(CC2CC2)n1`, the Emax came out at 100% in data set [3] (filed as agonist) and 20% in data set [4]. Moreover, the EC50 is 103 nM in [1] and 4900 nM in [2].
As to `CCCCCn1nc(C(=O)Nc2ccc(Cl)cc2)cc1C(C)(C)C`, in data set [3] (filed as agonist), the Emax turned out to be 80%. Also, the EC50 in data set [1] came to 2350 nM; in data set [2], 100000 nM.
As for `CC(C)(CO)NC(=O)c1cc(C(C)(C)C)n(-c2ccc(F)cc2F)n1`, the Emax in data set [3] (filed as agonist) was 80%. Also, the EC50 in [1] came out at 1730 nM; in data set [2], 100000 nM.
Regarding `CCCCCn1nc(C(=O)N[C@@H](C(=O)OC)C(C)C)cc1C(C)(C)C`, the Emax in data set [3] (filed as agonist) and in data set [4] (filed as agonist) was 90% each time. The same compound displayed a fraction remaining at 1 h, 1 µM in data set [5] of 2.9%. For the same compound, in data set [6], the microsomal CLint at 1 µM is 117 µL/min/mg. The same compound registered a half-life at 1 µM in data set [7] of 11.8 min. The EC50 in data set [1] stood at 7.4 nM; in data set [2], 1.6 nM. In data set [8], this compound came in with a CLint scaled at 1 µM of 105 mL/min/kg.
Regarding `CCCCCn1nc(C(C)(C)C)cc1C(=O)NC(C)(C)C`, the Emax in [3] (filed as agonist) worked out at 80%. For the same compound, the half-maximal effective concentration (EC50) in data set [1] was found to be 301 nM; in data set [2], 100000 nM.
As for `CCCCCn1nc(C(=O)NC(C)(C)CO)c([N+](=O)[O-])c1C(C)(C)C`, the Emax in [3] (filed as agonist) came out at 70%; in [4] (filed as agonist), 100%. Besides, the IC50 result in data set [9] is reported as “Not Active”. The EC50 in [1] was 13.3 nM; in [2], 129 nM.
For `CCCCCn1nc(C(=O)NC(C)(C)CO)c(Cl)c1C(C)(C)C`, the Emax in data set [3] (filed as agonist) was found to be 100%; in data set [4] (filed as agonist), 50%. Besides, the IC50 result in data set [9] was “Not Active”. The 50% effective concentration (EC50) worked out at 3.4 nM in [1] and 33.9 nM in [2].
Turning to `CCCCCn1nc(C(=O)NC(C)(C)CO)cc1C(C)(C)C`, the maximal effect (Emax) in data set [3] (filed as agonist) and in data set [4] (filed as agonist) was 100% throughout. In [5], this compound displayed a share remaining at 1 h, 1 µM of 14.9%. Besides, the microsomal CLint at 1 µM in data set [6] came to 62.4 µL/min/mg. This compound returned a half-life at 1 µM in [7] of 22.2 min. The EC50 in [1] amounted to 2.9 nM; in data set [2], 17.4 nM. The compound further yielded an intrinsic clearance (CLint scaled) at 1 µM in data set [8] of 56.1 mL/min/kg.
Turning to `CCCCCn1nc(C(=O)NC(C)(C)CO)cc1C(F)(F)F`, the maximal response (Emax) in data set [3] (filed as agonist) and in [4] (filed as agonist) was 80% in each case. Moreover, the IC50 entry in data set [9] is reported as “Not Active”. Also, the concentration for a half-maximal effect (EC50) in data set [1] is 53.8 nM; in [2], 187 nM.
Regarding `CC(C)(CO)NC(=O)c1cc(C(C)(C)C)n(CCCF)n1`, the Emax in [3] (filed as agonist) was 100%. The EC50 in data set [1] came out at 184 nM; in [2], 100000 nM.
Regarding `CCCCCn1nc(C(C)(C)C)cc1C(=O)NCc1ccc(Cl)cc1`, the EC50 in data set [1] and in [2] was 100000 nM in each case.
Consider `CCCCCn1nc(C(=O)NC2CCCCC2)cc1C(C)(C)C`, for which the Emax in data set [3] (filed as agonist) worked out at 80%; in data set [4] (filed as agonist) it was 50%. For the same compound, the concentration giving a half-maximal response (EC50) in [1] was determined as 46 nM; in data set [2] it was 104 nM.
